Reference: PMC11110727, “Exploiting thiol-functionalized benzosiloxaboroles for achieving diverse substitution patterns – synthesis, characterization and biological evaluation of promising antibacterial agents” (RSC Medicinal Chemistry, 2024)
Values after ≈ are worked out from the molar mass of the structure shown.

Columns and labels:
K. pneumoniae ATCC 13883 = test: Antibacterial activity: MIC/MBC, MIC with PAβN, disc-diffusion; type: cell-based, Klebsiella pneumoniae; details: Klebsiella pneumoniae, ATCC13883; K. pneumoniae ATCC 13883; read-out: MIC
Description: (§1) Direct antimicrobial activity was determined against the following standard strains: (1) Gram-positive cocci: methicillin-sensitive Staphylococcus aureus ATCC 6538P (MSSA), methicillin-resistant S. aureus subsp. aureus ATCC 43300 (MRSA), S. epidermidis ATCC 12228, Enterococcus faecium ATCC 6057, E. faecalis ATCC 29212, Bacillus subtilis ATCC 6633; (2) Gram-negative bacteria from Enterobacteriales order: Klebsiella pneumoniae ATCC 13883, Escherichia coli ATCC 25922, Enterobacter cloacae DSM 6234, Proteus mirabilis ATCC 12453, Serratia marcescens ATCC 13880; (3) Gram-negative non-fermentative rods: Acinetobacter baumannii ATCC 19606, Pseudomonas aeruginosa ATCC 27853, Stenotrophomonas maltophilia ATCC 12714, S. maltophilia ATCC 13637, Burkholderia cepacia ATCC 25416, Bordetella bronchiseptica ATCC 4617; (4) yeasts: Candida albicans ATCC 90028, C. krusei ATCC 6258, C. parapsilosis ATCC 22019, C. tropicalis (Castellani) Berkhout ATCC 750, C. tropicalis IBA 171, C. guilliermondii IBA 155, and Saccharomyces cerevisiae ATCC 9763. Moreover, 5 clinical strains of methicillin-resistant S. aureus were also included: NMI 664 K, NMI 1576 K, NMI 1712 K, NMI 1991 K, and NMI 2541 K. All strains were stored at −80 °C. Prior to testing, each bacterial strain was subcultured twice on tryptic soy agar TSA (bioMerieux) medium and yeast strains on Sabouraud dextrose agar (bioMerieux) for 24–48 h at 30 °C to ensure viability. The antimicrobial activity was evaluated as previously described[26] by the disc-diffusion method and the MIC determination assays according to the EUCAST (ref. [71] and [72]) and CLSI (ref. [53] and [73]) recommendations. Assessment of bactericidal (MBC) and fungicidal (MFC) activities was performed according to the CLSI recommendations.[54,74] […] The new benzosiloxaboroles were dissolved in DMSO (Sigma).
(§2) Considering that the MDR efflux pumps often contribute to Gram-negative rod resistance, the MIC values of studied agents, with or without the pump inhibitor, PAβN (20 μg mL^−1) (Sigma), were determined.[75] The MIC was determined using Mueller–Hinton II broth medium (MHB) (Becton Dickinson) by the broth microdilution method, according to the CLSI guideliness.[53] To minimize the influence of PAβN on the destabilization of bacterial cell covers, the tests were conducted in the presence of 1 mM MgSO4 (Sigma).[76] At least a 4-fold reduction in the MIC value after the addition of PAβN was considered significant.[56,77]

C. tropicalis IBA 171 = test: Antifungal activity: MIC/MFC, disc-diffusion; type: cell-based; details: for MIC: Candida tropicalis, IBA171, read-out: MIC; for diameter of inhibition zone: C. tropicalis IBA 171, (-) = zone not observed, paper discs 9 mm
Description: (§3) Direct antimicrobial activity was determined against the following standard strains: (1) Gram-positive cocci: methicillin-sensitive Staphylococcus aureus ATCC 6538P (MSSA), methicillin-resistant S. aureus subsp. aureus ATCC 43300 (MRSA), S. epidermidis ATCC 12228, Enterococcus faecium ATCC 6057, E. faecalis ATCC 29212, Bacillus subtilis ATCC 6633; (2) Gram-negative bacteria from Enterobacteriales order: Klebsiella pneumoniae ATCC 13883, Escherichia coli ATCC 25922, Enterobacter cloacae DSM 6234, Proteus mirabilis ATCC 12453, Serratia marcescens ATCC 13880; (3) Gram-negative non-fermentative rods: Acinetobacter baumannii ATCC 19606, Pseudomonas aeruginosa ATCC 27853, Stenotrophomonas maltophilia ATCC 12714, S. maltophilia ATCC 13637, Burkholderia cepacia ATCC 25416, Bordetella bronchiseptica ATCC 4617; (4) yeasts: Candida albicans ATCC 90028, C. krusei ATCC 6258, C. parapsilosis ATCC 22019, C. tropicalis (Castellani) Berkhout ATCC 750, C. tropicalis IBA 171, C. guilliermondii IBA 155, and Saccharomyces cerevisiae ATCC 9763. Moreover, 5 clinical strains of methicillin-resistant S. aureus were also included: NMI 664 K, NMI 1576 K, NMI 1712 K, NMI 1991 K, and NMI 2541 K. All strains were stored at −80 °C. Prior to testing, each bacterial strain was subcultured twice on tryptic soy agar TSA (bioMerieux) medium and yeast strains on Sabouraud dextrose agar (bioMerieux) for 24–48 h at 30 °C to ensure viability. The antimicrobial activity was evaluated as previously described[26] by the disc-diffusion method and the MIC determination assays according to the EUCAST (ref. [71] and [72]) and CLSI (ref. [53] and [73]) recommendations. Assessment of bactericidal (MBC) and fungicidal (MFC) activities was performed according to the CLSI recommendations.[54,74] The following reference agents were used: fluconazole (in the case of fungi), linezolid (for Gram-positive bacteria), and nitrofurantoin (for Gram-negative rods). The new benzosiloxaboroles were dissolved in DMSO (Sigma).

[1] = test system: C. guilliermondii IBA 155; test: Antifungal activity: MIC/MFC, disc-diffusion; type: cell-based; details: for MIC: Meyerozyma guilliermondii, IBA155, read-out: MIC; for diameter of inhibition zone: C. guilliermondii IBA 155, (-) = zone not observed, paper discs 9 mm
Description: as §3

[2] = test system: C. parapsilosis ATCC 22019; test: Antifungal activity: MIC/MFC, disc-diffusion; type: cell-based; details: for MIC: Lodderomyces parapsilosis, ATCC22019, read-out: MIC; for diameter of inhibition zone: C. parapsilosis ATCC 22019, (-) = zone not observed, paper discs 9 mm
Description: as §3

C. tropicalis ATCC 750 = test: Antifungal activity: MIC/MFC, disc-diffusion; type: cell-based; details: for MIC: Candida tropicalis, ATCC750, read-out: MIC; for diameter of inhibition zone: C. tropicalis ATCC 750, (-) = zone not observed, paper discs 9 mm
Description: as §3

B. cepacia ATCC 25416 = test: Antibacterial activity: MIC/MBC, disc-diffusion; type: cell-based, Burkholderia cepacia; details: Burkholderia cepacia, ATCC25416; B. cepacia ATCC 25416; read-out: MIC
Description: as §1, §2

C. krusei ATCC 6258 = test: Antifungal activity: MIC/MFC, disc-diffusion; type: cell-based; details: for MIC: read-out: MIC; for diameter of inhibition zone: (-) = zone not observed, paper discs 9 mm
Description: as §1

E. cloacae DSM 6234 = test: Antibacterial activity: MIC/MBC, MIC with PAβN, disc-diffusion; type: cell-based, Enterobacter cloacae; details: Enterobacter cloacae, DSM6234; E. cloacae DSM 6234; read-out: MIC
Description: as §1, §2

S. marcescens ATCC 13880 = test: as above; type: cell-based, Serratia marcescens; details: Serratia marcescens, ATCC13880; S. marcescens ATCC 13880; read-out: MIC
Description: as §1, §2

P. mirabilis ATCC 12453 = test: as above; type: cell-based, Proteus mirabilis; details: Proteus mirabilis, ATCC12453; P. mirabilis ATCC 12453; read-out: MIC
Description: as §1, §2

E. coli ATCC 25922 = test: as above; type: cell-based, Escherichia coli; details: E. coli ATCC 25922; for MIC: Escherichia coli, ATCC25922, read-out: MIC; for -fold reduction of MIC in the presence of PAβN: PAβN 20 μg mL^−1, MHB + 1 mM MgSO4
Description: as §1, §2

| SMILES | MIC (K. pneumoniae ATCC 13883) [µg/mL] | MIC (C. tropicalis IBA 171) [µg/mL] | MIC [1] [µg/mL] | MIC [2] [µg/mL] | MIC (C. tropicalis ATCC 750) [µg/mL] | MIC (B. cepacia ATCC 25416) [µg/mL] | MIC (C. krusei ATCC 6258; Pichia kudriavzevii, ATCC6258) [µg/mL] | MIC (E. cloacae DSM 6234) [µg/mL] | MIC (S. marcescens ATCC 13880) [µg/mL] | MIC (P. mirabilis ATCC 12453) [µg/mL] | MIC (E. coli ATCC 25922) [µg/mL] | diameter of inhibition zone (C. tropicalis IBA 171) [mm] | diameter of inhibition zone [1] [mm] | diameter of inhibition zone [2] [mm] | diameter of inhibition zone (C. tropicalis ATCC 750) [mm] | diameter of inhibition zone (C. krusei ATCC 6258; C. krusei ATCC 6258) [mm] | -fold reduction of MIC in the presence of PAβN (E. coli ATCC 25922) | MFC (C. krusei ATCC 6258; Pichia kudriavzevii, ATCC6258, C. krusei ATCC 6258) [µg/mL] |
| --- | --- | --- | --- | --- | --- | --- | --- | --- | --- | --- | --- | --- | --- | --- | --- | --- | --- | --- |
| C[Si]1(C)OB(O)c2cc(F)c(SCCC(=O)Nc3cnccn3)c(F)c21 [Compound 10, 3-((5,7-Difluoro-3-hydroxy-1,1-dimethyl-1,3-dihydrobenzo[c][1,2,5]oxasilaborol-6-yl)thio)-N-(pyrazin-2-yl)propanamide] | > 400 | > 400 | > 400 | > 400 | > 400 | > 400 | > 400 | > 400 | > 400 | > 400 | > 400 |  |  |  |  |  |  |  |
| C[Si]1(C)OB(O)c2ccc(SC3CC(=O)N(c4ccc(F)cc4)C3=O)c(F)c21 (stereo not drawn) [Compound 15, 3-((7-Fluoro-3-hydroxy-1,1-dimethyl-1,3-dihydrobenzo[c][1,2,5]oxasilaborol-6-yl)thio)-1-(4-fluorophenyl)pyrrolidine-2,5-dione] | > 200 | > 200 | 200 (≈ 477 µM) | 200 (≈ 477 µM) | > 200 | > 200 | 25 (≈ 59.6 µM) | > 200 | > 200 | > 200 | > 200 | 15 | 28 | 23 | 14 | 29 |  |  |
| C[Si]1(C)OB(O)c2cc(F)c(S(=O)(=O)Cl)c(F)c21 [Compound 26, 5,7-Difluoro-3-hydroxy-1,1-dimethyl-1,3-dihydrobenzo[c][1,2,5]oxasilaborole-6-sulfonyl chloride] | > 400 | > 400 | > 400 | > 400 | > 400 | > 400 | > 400 | > 400 | > 400 | > 400 | > 400 |  |  |  |  |  |  |  |
| C[Si]1(C)OB(O)c2ccc(SCC(=O)c3ccccc3)c(F)c21 [Compound 23, 2-((7-Fluoro-3-hydroxy-1,1-dimethyl-1,3-dihydrobenzo[c][1,2,5]oxasilaborol-6-yl)thio)-1-phenylethan-1-one] | > 400 | 400 (≈ 1160 µM) | > 400 | 400 (≈ 1160 µM) | 400 (≈ 1160 µM) | > 400 | 200 (≈ 578 µM) | > 400 | > 400 | > 400 | > 400 |  |  |  |  | 12 |  |  |
| C[Si]1(C)OB(O)c2cc(F)c(SCCC#N)c(F)c21 [Compound 6, 3-((5,7-Difluoro-3-hydroxy-1,1-dimethyl-1,3-dihydrobenzo[c][1,2,5]oxasilaborol-6-yl)thio)propanenitrile] | > 400 | > 400 | > 400 | > 400 | > 400 | > 400 | > 400 | > 400 | > 400 | > 400 | > 400 |  |  |  |  |  | 2 -fold |  |
| C[Si]1(C)OB(O)c2cc(F)c(S(N)(=O)=O)c(F)c21 [Compound 27, 5,7-Difluoro-3-hydroxy-1,1-dimethyl-1,3-dihydrobenzo[c][1,2,5]oxasilaborole-6-sulfonamide] | > 400 | > 400 | > 400 | > 400 | > 400 | > 400 | > 400 | > 400 | > 400 | > 400 | > 400 |  |  |  |  |  | 2 -fold |  |
| C[Si]1(C)OB(O)c2cc(F)c(SC3CC(=O)N(c4ccc(F)cc4)C3=O)c(F)c21 (stereo not drawn) [Compound 14, 3-((5,7-Difluoro-3-hydroxy-1,1-dimethyl-1,3-dihydrobenzo[c][1,2,5]oxasilaborol-6-yl)thio)-1-(4-fluorophenyl)pyrrolidine-2,5-dione] | > 200 | 200 (≈ 457 µM) | 100 (≈ 229 µM) | 100 (≈ 229 µM) | 200 (≈ 457 µM) | > 200 | 12.5 (≈ 28.6 µM) | > 200 | > 200 | > 200 | > 200 | 19 | 31 | 27 | 20 | 30 | 2 -fold | 100 (≈ 229 µM) |
| C[Si]1(C)OB(O)c2cc(F)c(S(=O)(=O)N3CCOCC3)c(F)c21 [Compound 29, 5,7-Difluoro-1,1-dimethyl-6-(morpholinosulfonyl)benzo[c][1,2,5]oxasilaborol-3(1H)-ol] | > 400 |  |  |  |  | > 400 |  | > 400 | > 400 | > 400 | > 400 |  |  |  |  |  | 2 -fold |  |
